Assay results taken from patent US10662161B2, “Pyrimidines and uses thereof” (Regents of the University of Minnesota, priority 2017, dated 2020).
Where “and” joins values, the source holds several entries; their conditions need not be identical. Identical values can stand only once. Entries after “also recorded” stand apart in the source; their conditions may differ. Counter-ions that a name gives are not always drawn.

System: human peripheral blood mononuclear cells (hPBMC)
Experiment: Multiplexed immunoassays for cytokine and chemokine induction in human PBMCs
Type: cell-based
Conditions: 41-analyte multiplexed immunoassay
Protocol: Immunoassays for Cytokines.
Fresh human peripheral blood mononuclear cells (hPBMC) were isolated from human blood obtained by venipuncture in Cell Preparation Tubes (CPT, Beckton-Dickinson) with informed consent and as per guidelines approved by the University of Minnesota Human Subjects Experimentation Committee. Aliquots of PBMCs (10^5 cells in 100 µL/well) were stimulated for 16 h with graded concentrations of test compounds. Supernatants were isolated by centrifugation, and were assayed in duplicates using analyte-specific multiplexed cytokine/chemokine bead array assays (HCYTMAG-60K-PX29 MILLIPLEX MAP Human Cytokine/Chemokine Magnetic Bead Panel, EMD Millipore, Billerica, Mass.) as reported by us previously.^19 The following analytes were quantified: sCD40L, VEGF, TNF-β, TNF-α. TGF-α, RANTES, PDGF-AB/BB, PDGF-AA, MIP-1β, MIP-1α, MDC (CCL22), MCP-3, MCP-1, IP-10, IL-17A, IL-15, IL-13, IL-12 (p70), IL-12 (p40). IL-10, IL-9, IL-8, IL-7, IL-6, IL-5, IL-4, IL-3, IL-2, IL-1 ra, IL-1β, IL-1α, IFN-γ, IFN-α2, GRO, GM-CSF, G-CSF, fractalkine, Fit-3 ligand, FGF-2, eotaxin, EGF.

| SMILES | cytokine and chemokine induction (in words) |
| --- | --- |
| CCCCNc1nc(N)nc(-c2ccccc2)c1CCCCN.Cl.Cl [Compound 32b, 5-(4-Aminobutyl)-N^4-butyl-6-phenylpyrimidine-2,4-diamine dihydrochloride] | significantly weaker |

Biological target: T1, human TLR8 (Homo sapiens, UniProt Q9NR97)
T1 construct: expressed in transfected cells; host or cells: HEK293
T1 sequence (Q9NR97 27-1041): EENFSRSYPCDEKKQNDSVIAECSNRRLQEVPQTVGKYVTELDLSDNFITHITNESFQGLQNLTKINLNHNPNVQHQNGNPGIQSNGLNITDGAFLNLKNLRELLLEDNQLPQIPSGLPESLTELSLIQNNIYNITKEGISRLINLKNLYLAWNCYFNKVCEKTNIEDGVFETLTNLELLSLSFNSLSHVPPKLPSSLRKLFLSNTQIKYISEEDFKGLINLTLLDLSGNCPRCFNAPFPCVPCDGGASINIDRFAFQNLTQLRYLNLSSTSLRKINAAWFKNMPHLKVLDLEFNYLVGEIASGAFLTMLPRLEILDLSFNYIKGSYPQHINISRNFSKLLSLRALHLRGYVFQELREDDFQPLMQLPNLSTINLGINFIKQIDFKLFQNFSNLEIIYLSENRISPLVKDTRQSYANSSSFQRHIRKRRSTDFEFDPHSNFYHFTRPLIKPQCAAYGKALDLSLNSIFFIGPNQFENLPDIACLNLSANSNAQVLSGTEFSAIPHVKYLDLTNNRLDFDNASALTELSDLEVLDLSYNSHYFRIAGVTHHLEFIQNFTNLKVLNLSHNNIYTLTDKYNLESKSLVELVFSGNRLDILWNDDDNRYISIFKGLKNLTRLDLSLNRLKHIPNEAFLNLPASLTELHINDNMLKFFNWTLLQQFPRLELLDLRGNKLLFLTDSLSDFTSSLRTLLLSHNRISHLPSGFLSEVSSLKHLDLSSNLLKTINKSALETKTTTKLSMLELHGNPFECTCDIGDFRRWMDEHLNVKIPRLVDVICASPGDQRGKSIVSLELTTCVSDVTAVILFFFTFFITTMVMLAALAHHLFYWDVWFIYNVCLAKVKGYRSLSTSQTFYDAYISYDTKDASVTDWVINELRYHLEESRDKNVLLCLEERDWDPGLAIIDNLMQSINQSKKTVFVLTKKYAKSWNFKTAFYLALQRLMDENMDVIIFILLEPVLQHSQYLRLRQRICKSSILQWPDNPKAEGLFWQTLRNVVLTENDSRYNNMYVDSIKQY
Experiment: Human TLR8-specific reporter gene assay (NF-κB induction, sAP) in HEK293 cells
Type: cell-based
Conditions: primary screen, HEK293 hTLR8 reporter cells; read-out: EC50, TLR8 agonistic activity (hTLR8-specific NF-κB induction)
Excerpt: Human TLR8-Specific Reporter Gene Assays (NF-κB Induction), and TLR-2/-3/-4/-5/-7/-9 Counter-Screens:
The induction of NF-κB was quantified using human TLR-2/-3/-4/-5/-7/-8/-9-specific, rapid-throughput, liquid handler-assisted reporter gene assays as previously described by us.^31,25, 32,33 HEK293 cells stably co-transfected with the appropriate hTLR and secreted alkaline phosphatase (sAP) were maintained in HEK-Blue™ Selection medium. Stable expression of secreted alkaline phosphatase (sAP) under control of NF-κB/AP-1 promoters is inducible by appropriate TLR agonists, and extracellular sAP in the supernatant is proportional to NF-κB induction. Reporter cells were incubated at a density of ˜10^5 cells/ml in a volume of 80 μl/well, in 384-well, flat-bottomed, cell culture-treated microtiter plates in the presence of graded concentrations of stimuli. sAP was assayed spectrophotometrically using an alkaline phosphatase-specific chromogen (present in HEK-detection medium as supplied by InvivoGen) at 620 nm.

| SMILES | EC50 |
| --- | --- |
| CCCCNc1cc(C)nc(N)n1 [Compound 15, N^4-Butyl-6-methylpyrimidine-2,4-diamine] | 22000 nM |
| CCCCNc1ccnc(N)n1 [Compound 16, N^4-Butylpyrimidine-2,4-diamine] | 73200 nM |
| CCCCNc1nc(N)nc(C)c1CCCN.Cl.Cl [Compound 27a, 5-(3-Aminopropyl)-N^4-butyl-6-methylpyrimidine-2,4-diamine dihydrochloride] | 2310 nM |
| CCCCNc1nc(N)nc(-c2ccccc2)c1CCCCN.Cl.Cl [Compound 32b, 5-(4-Aminobutyl)-N^4-butyl-6-phenylpyrimidine-2,4-diamine dihydrochloride] | 2700 nM |
| CCCCNc1nc(N)nc(-c2ccccc2)c1CCCCCN [Compound 32c, 5-(5-Aminopentyl)-N^4-butyl-6-phenylpyrimidine-2,4-diamine dihydrochloride] | 2350 nM |

Same assay, conditions: primary screen, reporter gene assay

| SMILES | TLR8-agonistic activity (in words) |
| --- | --- |
| CCCCN(C)c1nc(N)nc(C)c1I [Compound 4e, N^4-Butyl-5-iodo-N^4,6-dimethylpyrimidine-2,4-diamine] | abrogated activity |
| CCCCN(Cc1ccccc1)c1nc(N)nc(C)c1I [Compound 4f, N^4-Benzyl-N^4-butyl-5-iodo-6-methylpyrimidine-2,4-diamine] | abrogated activity |
| CCCCOc1nc(N)nc(C)c1I [Compound 4g, 4-Butoxy-5-iodo-6-methylpyrimidin-2-amine] | inactive |
| CCCCSc1nc(N)nc(C)c1I [Compound 4h, 4-(Butylthio)-5-iodo-6-methylpyrimidin-2-amine] | inactive |
| CCCC#Cc1cc(C)nc(N)n1 [Compound 4i, 4-Methyl-6-(pent-1-yn-1-yl)pyrimidin-2-amine] | inactive |
| CCCCCc1cc(C)nc(N)n1 [Compound 4j, 4-Methyl-6-pentylpyrimidin-2-amine] | inactive |
| CCCCCc1nc(N)nc(C)c1I [Compound 4k, 5-iodo-4-methyl-6-pentylpyrimidin-2-amine] | inactive |
| CCCCNc1nc(N)nc(C)c1Cl [Compound 6a, N^4-Butyl-5-chloro-6-methylpyrimidine-2,4-diamine] | substantial losses in potency |
| CCCCNc1nc(N)nc(C)c1Br [Compound 6b, 5-Bromo-N^4-butyl-6-methylpyrimidine-2,4-diamine] | substantial losses in potency |
| CCCCNc1nc(N)nc(C)c1F [Compound 6c, N^4-Butyl-5-fluoro-6-methylpyrimidine-2,4-diamine] | substantial losses in potency |
| CCCCNc1nc(N)ncc1I [Compound 17, N^4-Butyl-5-iodopyrimidine-2,4-diamine] | entirely without measurable TLR8-agonistic activity |
| CCCCNc1nc(N)nc(C)c1Cc1ccccc1 [Compound 24, 5-Benzyl-MN-butyl-6-methylpyrimidine-2,4-diamine] | diminution of activity, exhibiting greatly attenuated area-under-the curve |
| CCCCNc1nc(N)nc(C)c1CCCCCN.Cl.Cl [Compound 27c, 5-(5-Aminopentyl)-MN-butyl-6-methylpyrimidine-2,4-diamine dihydrochloride] | appeared to plateau |
| CCCCNc1nc(N)nc(-c2ccccc2)c1I [Compound 29, N^4-Butyl-5-iodo-6-phenylpyrimidine-2,4-diamine] | inactive |

Same assay, conditions: reference printed as 4b (22 μM)

| SMILES | fold increase in TLR8 potency relative to that of 4b (22 μM) |
| --- | --- |
| CCCCNc1nc(N)nc(C)c1CCCN.Cl.Cl [Compound 27a, 5-(3-Aminopropyl)-N^4-butyl-6-methylpyrimidine-2,4-diamine dihydrochloride] | increased nearly ten-fold |

Same assay, conditions: relative to 4b

| SMILES | fold less active than 4b (TLR8 EC50) |
| --- | --- |
| CCCCNc1cc(C)nc(N)n1 [Compound 15, N^4-Butyl-6-methylpyrimidine-2,4-diamine] | ca. fourteen-fold less active |

Same assay, conditions: reporter gene assays with TLR-2/-3/-4/-5/-7/-9 counter-screens

| SMILES | TLR8 specificity/selectivity (in words) |
| --- | --- |
| CCCCNc1nc(N)nc(C)c1I [Compound 4b, N^4-Butyl-5-iodo-6-methylpyrimidine-2,4-diamine] | pure TLR8 agonist; also recorded: bona fide TLR8-specific agonist |

System: CD80 expression in the monocytes (human whole blood)
Experiment: Flow-cytometric immunostimulation: CD80 upregulation in human whole blood
Type: cell-based
Conditions: 16 h, CD80-PE-Cy7 MFI
Protocol: Flow-Cytometric Immunostimulation Experiments:
Cell surface marker upregulation was determined by flow cytometry using protocols published by us previously. Briefly, heparin-anticoagulated whole blood samples were obtained by venipuncture from healthy human volunteers with informed consent and as per guidelines approved by the University of Minnesota Human Subjects Experimentation Committee. Serial dilutions of selected compounds were performed using a Bio-Tek Precision 2000 XS liquid handler in sterile 96-well polypropylene plates, to which were added 100 μL aliquots of anticoagulated whole human blood. The plates were incubated at 37° C. for 16 h. Negative (DMSO) controls were included in each experiment. The following fluorochrome-conjugated antibodies were used: CD14-FITC, CD40-APC, CD80-PE-Cy7, CD86-V450 (Becton-Dickinson Biosciences, San Jose, Calif.). Following incubation, 2.5 μg of each antibody was added to wells with a liquid handler, and incubated at 4° C. in the dark for 60 min. Following staining, erythrocytes were lysed and leukocytes fixed by mixing 200 μL of the samples in 800 μL pre-warmed Whole Blood Lyse/Fix Buffer (Becton-Dickinson Biosciences, San Jose, Calif.) in 96 deep-well plates. After washing the cells twice at 300 g for 10 minutes in RPMI, the cells were transferred to a 96-well plate. […]

| SMILES | activity in upregulating CD80 |
| --- | --- |
| CCCCNc1nc(N)nc(C)c1I [Compound 4b, N^4-Butyl-5-iodo-6-methylpyrimidine-2,4-diamine] | 1.5 μg/mL and 5 μM |
